# Columns and labels:
# [1] = molecular target: Vasopressin V2 receptor (Homo sapiens, UniProt P30518)
# [2] = molecular target: Neuronal acetylcholine receptor subunit alpha-4 (Homo sapiens, UniProt P43681)
# [3] = molecular target: Cannabinoid receptor 1 (Homo sapiens, UniProt P21554); format: functional, cell-based
# [4] = molecular target: 5-hydroxytryptamine receptor 2B (Homo sapiens, UniProt P41595); format: functional, cell-based
# [5] = molecular target: T1, Neuropeptide Y receptor type 1 (Homo sapiens, UniProt P25929)
# T1 sequence (P25929 whole entry): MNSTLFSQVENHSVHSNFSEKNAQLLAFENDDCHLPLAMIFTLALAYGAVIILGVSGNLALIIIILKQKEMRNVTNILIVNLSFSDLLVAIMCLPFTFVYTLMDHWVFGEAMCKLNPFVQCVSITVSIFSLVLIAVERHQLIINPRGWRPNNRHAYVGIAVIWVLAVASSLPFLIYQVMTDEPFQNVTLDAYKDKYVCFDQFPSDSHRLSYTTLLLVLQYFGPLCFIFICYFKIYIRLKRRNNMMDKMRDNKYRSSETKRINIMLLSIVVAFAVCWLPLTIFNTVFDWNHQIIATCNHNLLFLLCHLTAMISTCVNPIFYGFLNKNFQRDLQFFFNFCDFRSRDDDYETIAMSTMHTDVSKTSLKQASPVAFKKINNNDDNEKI
# [6] = molecular target: Delta-type opioid receptor (Homo sapiens, UniProt P41143)
# [7] = molecular target: T2, Thromboxane A2 receptor (Homo sapiens, UniProt P21731)
# T2 sequence (P21731 whole entry): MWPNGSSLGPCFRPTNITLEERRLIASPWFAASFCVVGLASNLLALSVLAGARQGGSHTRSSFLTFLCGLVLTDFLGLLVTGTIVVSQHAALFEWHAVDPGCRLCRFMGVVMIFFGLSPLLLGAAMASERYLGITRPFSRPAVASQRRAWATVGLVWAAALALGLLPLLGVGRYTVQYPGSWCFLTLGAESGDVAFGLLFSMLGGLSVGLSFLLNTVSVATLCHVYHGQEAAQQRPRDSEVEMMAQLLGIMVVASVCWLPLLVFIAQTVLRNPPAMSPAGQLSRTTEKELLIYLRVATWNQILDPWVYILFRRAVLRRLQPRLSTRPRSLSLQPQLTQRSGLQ
# [8] = molecular target: T3, Amine oxidase [flavin-containing] A (Homo sapiens, UniProt P21397); format: functional
# T3 sequence (P21397 whole entry): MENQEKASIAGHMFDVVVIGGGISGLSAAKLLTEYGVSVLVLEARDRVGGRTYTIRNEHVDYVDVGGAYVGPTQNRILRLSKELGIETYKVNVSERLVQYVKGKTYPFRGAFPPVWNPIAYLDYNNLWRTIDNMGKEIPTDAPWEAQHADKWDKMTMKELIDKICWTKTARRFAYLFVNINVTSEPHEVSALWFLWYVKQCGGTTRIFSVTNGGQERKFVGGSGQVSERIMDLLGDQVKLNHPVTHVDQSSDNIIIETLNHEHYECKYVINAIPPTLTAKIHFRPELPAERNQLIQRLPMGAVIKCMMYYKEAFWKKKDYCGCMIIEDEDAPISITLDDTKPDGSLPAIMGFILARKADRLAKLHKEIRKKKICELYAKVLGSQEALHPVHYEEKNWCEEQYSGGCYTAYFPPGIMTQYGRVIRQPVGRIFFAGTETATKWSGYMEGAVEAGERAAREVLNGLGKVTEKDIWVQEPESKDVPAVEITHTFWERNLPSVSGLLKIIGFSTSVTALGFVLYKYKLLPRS
# [9] = molecular target: T4, Progesterone receptor (Homo sapiens, UniProt P06401); format: functional
# T4 sequence (P06401 whole entry): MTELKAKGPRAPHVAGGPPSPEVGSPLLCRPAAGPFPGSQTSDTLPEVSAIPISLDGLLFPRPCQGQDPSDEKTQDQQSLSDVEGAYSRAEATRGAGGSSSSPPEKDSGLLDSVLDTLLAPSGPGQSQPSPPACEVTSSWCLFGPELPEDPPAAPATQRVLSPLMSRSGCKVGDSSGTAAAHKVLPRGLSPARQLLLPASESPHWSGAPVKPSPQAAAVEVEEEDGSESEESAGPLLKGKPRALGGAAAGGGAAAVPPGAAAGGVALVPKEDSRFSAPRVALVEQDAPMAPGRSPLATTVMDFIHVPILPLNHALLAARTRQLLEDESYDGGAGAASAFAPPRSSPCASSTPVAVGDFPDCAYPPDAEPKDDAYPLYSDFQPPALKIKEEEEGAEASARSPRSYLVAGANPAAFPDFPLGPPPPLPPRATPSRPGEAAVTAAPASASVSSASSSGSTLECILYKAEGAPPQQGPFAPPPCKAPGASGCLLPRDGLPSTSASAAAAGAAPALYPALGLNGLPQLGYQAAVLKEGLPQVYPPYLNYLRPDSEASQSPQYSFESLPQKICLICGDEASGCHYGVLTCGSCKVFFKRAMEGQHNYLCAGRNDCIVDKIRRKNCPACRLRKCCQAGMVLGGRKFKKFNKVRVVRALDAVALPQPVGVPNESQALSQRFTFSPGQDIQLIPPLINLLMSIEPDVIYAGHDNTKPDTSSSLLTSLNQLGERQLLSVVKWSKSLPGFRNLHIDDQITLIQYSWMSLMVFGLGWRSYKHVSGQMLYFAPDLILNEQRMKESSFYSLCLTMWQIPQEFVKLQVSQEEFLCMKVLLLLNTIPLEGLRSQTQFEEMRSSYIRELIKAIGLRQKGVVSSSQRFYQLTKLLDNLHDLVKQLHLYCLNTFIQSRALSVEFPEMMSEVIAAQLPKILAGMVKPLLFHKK
# Further: assay procedure not described here.
# Delta-type opioid receptor, sequence (P41143 whole entry): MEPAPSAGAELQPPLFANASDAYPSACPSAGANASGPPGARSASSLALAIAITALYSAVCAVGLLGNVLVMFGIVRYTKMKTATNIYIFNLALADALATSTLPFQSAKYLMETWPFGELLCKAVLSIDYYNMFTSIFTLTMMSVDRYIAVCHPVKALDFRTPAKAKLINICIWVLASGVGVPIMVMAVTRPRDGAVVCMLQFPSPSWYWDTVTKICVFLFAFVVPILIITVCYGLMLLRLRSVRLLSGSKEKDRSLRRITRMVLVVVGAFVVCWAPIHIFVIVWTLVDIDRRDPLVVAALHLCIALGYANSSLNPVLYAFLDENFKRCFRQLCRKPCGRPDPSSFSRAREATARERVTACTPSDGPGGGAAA
# Neuronal acetylcholine receptor subunit alpha-4, sequence (P43681 whole entry): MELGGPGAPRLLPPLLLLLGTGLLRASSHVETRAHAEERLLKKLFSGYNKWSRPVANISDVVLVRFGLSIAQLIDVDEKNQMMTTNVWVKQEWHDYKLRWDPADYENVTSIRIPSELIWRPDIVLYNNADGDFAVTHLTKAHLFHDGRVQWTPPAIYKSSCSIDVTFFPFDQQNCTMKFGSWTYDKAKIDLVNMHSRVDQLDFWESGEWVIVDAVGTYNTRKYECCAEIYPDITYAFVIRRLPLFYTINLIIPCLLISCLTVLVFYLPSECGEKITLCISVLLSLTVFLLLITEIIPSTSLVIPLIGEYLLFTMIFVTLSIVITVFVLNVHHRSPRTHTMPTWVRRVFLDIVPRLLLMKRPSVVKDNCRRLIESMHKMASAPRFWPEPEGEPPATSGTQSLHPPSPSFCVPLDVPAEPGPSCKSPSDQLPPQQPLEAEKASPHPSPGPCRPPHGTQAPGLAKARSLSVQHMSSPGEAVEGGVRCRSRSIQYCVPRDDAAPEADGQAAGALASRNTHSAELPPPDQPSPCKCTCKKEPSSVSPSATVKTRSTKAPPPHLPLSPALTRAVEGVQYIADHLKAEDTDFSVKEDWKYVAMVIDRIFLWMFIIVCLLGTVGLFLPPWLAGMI
# Cannabinoid receptor 1, sequence (P21554 whole entry): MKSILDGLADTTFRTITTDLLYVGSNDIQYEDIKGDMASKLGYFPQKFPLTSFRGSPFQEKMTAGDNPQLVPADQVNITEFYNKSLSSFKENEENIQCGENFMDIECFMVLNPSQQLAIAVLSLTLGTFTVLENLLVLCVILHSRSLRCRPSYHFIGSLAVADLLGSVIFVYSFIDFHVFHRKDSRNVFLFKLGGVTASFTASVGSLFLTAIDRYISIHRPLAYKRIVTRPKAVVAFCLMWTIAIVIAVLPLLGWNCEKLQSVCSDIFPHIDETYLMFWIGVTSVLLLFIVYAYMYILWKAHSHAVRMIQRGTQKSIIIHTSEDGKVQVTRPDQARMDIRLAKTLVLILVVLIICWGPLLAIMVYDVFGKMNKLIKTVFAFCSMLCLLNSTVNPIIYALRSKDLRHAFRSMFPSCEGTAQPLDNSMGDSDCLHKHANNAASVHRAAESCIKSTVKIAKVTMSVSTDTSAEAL
# 5-hydroxytryptamine receptor 2B, sequence (P41595 whole entry): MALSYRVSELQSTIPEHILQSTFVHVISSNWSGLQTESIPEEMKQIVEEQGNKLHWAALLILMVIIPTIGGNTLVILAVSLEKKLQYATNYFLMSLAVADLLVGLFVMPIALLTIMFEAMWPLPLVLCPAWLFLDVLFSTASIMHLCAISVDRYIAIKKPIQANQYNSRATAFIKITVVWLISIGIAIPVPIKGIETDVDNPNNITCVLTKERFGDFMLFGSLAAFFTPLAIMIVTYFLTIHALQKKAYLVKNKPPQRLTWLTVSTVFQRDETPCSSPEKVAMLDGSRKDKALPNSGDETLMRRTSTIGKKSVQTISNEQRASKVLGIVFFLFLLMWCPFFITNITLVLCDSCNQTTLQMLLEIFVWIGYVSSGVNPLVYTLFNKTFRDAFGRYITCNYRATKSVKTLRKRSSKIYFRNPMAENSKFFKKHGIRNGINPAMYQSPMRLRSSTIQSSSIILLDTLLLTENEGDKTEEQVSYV
Compound,AC50 [1] [µM],AC50 [2] [µM],AC50 [3] [µM],AC50 [4] [µM],AC50 [5] [µM],AC50 [6] [µM],AC50 [7] [µM],AC50 [8] [µM],AC50 [9] [µM]
CCOC(=O)C1=C(C)NC(C)=C(C(=O)OC)C1c1cccc(Cl)c1Cl (stereo unspecified) [FELODIPINE],> 30,> 10,> 30,> 10,> 30,> 10,8.41,> 10,–
TEPRENONE,> 30,> 10,> 30,> 10,–,> 30,> 30,> 10,–
O=C(O)CCCC[C@@H]1SC[C@@H]2NC(=O)N[C@@H]21 [BIOTIN],> 10,> 10,–,> 10,> 10,> 30,> 10,> 10,–
N=C(N)NC(=O)Cc1c(Cl)cccc1Cl [GUANFACINE],> 30,> 10,> 30,0.358,> 30,> 30,> 30,6.88,–
CCC1(C)CC(=O)NC1=O (stereo unspecified) [ETHOSUXIMIDE],> 10,> 10,–,> 10,> 10,> 30,> 10,> 10,> 10
O=C1CN=C(c2ccccc2Cl)c2cc([N+](=O)[O-])ccc2N1 [CLONAZEPAM],> 30,> 10,–,> 10,> 30,> 30,> 30,> 10,–
Cc1cccc(Nc2ccncc2S(=O)(=O)NC(=O)NC(C)C)c1 [TORSEMIDE],> 30,> 30,–,> 10,> 30,> 30,20.8,> 10,> 10
CC(NC(C)(C)C)C(=O)c1cccc(Cl)c1 (stereo unspecified) [BUPROPION],> 30,–,> 30,> 10,> 30,> 10,> 30,> 10,–
Cc1nnc2n1-c1ccc(Cl)cc1C(c1ccccc1)=NC2 [ALPRAZOLAM],> 30,> 10,> 30,> 10,> 30,> 30,> 30,> 10,–
OCCN(CCO)c1nc(N2CCCCC2)c2nc(N(CCO)CCO)nc(N3CCCCC3)c2n1 [DIPYRIDAMOLE],> 30,–,–,15,> 30,> 30,> 30,> 30,–
CC(C)(C)NCC(O)COc1cccc2c1CC(O)C(O)C2 (stereo unspecified) [NADOLOL],> 10,> 10,> 30,> 10,> 10,> 30,> 10,> 10,> 10
CC(=O)N1CCN(c2ccc(OCC3COC(Cn4ccnc4)(c4ccc(Cl)cc4Cl)O3)cc2)CC1 (stereo unspecified) [KETOCONAZOLE],> 10,> 10,> 30,> 10,> 10,> 10,> 10,> 10,> 10
CCN(CC)CC(=O)Nc1c(C)cccc1C [LIDOCAINE],> 30,–,–,–,> 30,–,> 30,–,–
CC1CC(OC(=O)C(O)c2ccccc2)CC(C)(C)C1 (stereo unspecified) [CYCLANDELATE],> 10,> 10,–,> 10,> 10,> 30,> 10,> 10,> 30
CN1CCC(=C2c3ccccc3CC(=O)c3sccc32)CC1 [KETOTIFEN],> 10,> 10,16,> 10,> 10,> 30,> 10,> 10,> 10
CC1Cc2ccccc2N1NC(=O)c1ccc(Cl)c(S(N)(=O)=O)c1 (stereo unspecified) [INDAPAMIDE],> 30,> 10,> 30,> 10,> 30,> 30,> 30,> 10,–
CCc1ccc(C(=O)C(C)CN2CCCCC2)cc1 (stereo unspecified) [EPERISONE],> 30,> 30,–,> 30,> 30,19,> 30,> 30,> 30
CN1C2CCCC1CC(NC(=O)c1nn(C)c3ccccc13)C2 (stereo unspecified) [GRANISETRON],> 30,–,> 30,> 10,> 30,> 10,> 30,> 10,–
SITOSTEROLS,> 30,> 30,> 30,> 30,> 30,> 30,> 30,> 30,–
CC(=O)OCC(=O)[C@@]1(O)CC[C@H]2[C@@H]3CCC4=CC(=O)CC[C@]4(C)[C@@]3(F)[C@@H](O)C[C@@]21C [FLUDROCORTISONE ACETATE],> 30,> 30,> 30,> 30,> 30,> 30,> 30,–,8.2
Nc1cc(N2CCCCC2)nc(N)[n+]1[O-] [MINOXIDIL],> 30,> 10,–,> 10,–,> 30,> 30,> 10,–
Nc1ccc(S(=O)(=O)Nc2ncccn2)cc1 [SULFADIAZINE],> 10,> 10,–,> 10,> 10,> 30,> 10,> 10,> 10
CC1=C(CC(=O)O)c2cc(F)ccc2/C1=C\c1ccc([S+](C)[O-])cc1 (stereo unspecified),> 30,> 10,> 30,> 10,> 30,> 30,> 30,> 10,–
CN(Cc1ccc(C(C)(C)C)cc1)Cc1cccc2ccccc12 [BUTENAFINE],> 10,> 10,–,> 10,> 10,> 30,> 10,> 10,> 30
